Measurements as given in ChEMBL document CHEMBL5543092, “Design, synthesis, and biological characterization of proteolysis targeting chimera (PROTACs) for the ataxia telangiectasia and RAD3-related (ATR) kinase” (Eur J Med Chem, 2024).
Activity calls are given as the source filed them. No cut-off for these calls is given here.

Assays:
[1] = target: T1, von Hippel-Lindau disease tumor suppressor/Serine/threonine-protein kinase ATR (Homo sapiens) (UniProt Q13535+P40337); test: PROTAC activity at ATR/VHL in patient derived human MIA PaCa-2 cells assessed as protein degradation at 5 uM measured after 24 hrs by immunoblot analysis relative to untreated control; type: cell-based
T1 sequence (P40337 whole entry, looked up): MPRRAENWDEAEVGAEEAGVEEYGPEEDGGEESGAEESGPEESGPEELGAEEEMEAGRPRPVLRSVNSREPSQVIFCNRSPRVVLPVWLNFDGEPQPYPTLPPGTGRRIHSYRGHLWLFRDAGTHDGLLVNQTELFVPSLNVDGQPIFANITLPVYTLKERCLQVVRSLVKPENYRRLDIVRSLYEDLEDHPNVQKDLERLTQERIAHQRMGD
T1 sequence (Q13535 whole entry, looked up): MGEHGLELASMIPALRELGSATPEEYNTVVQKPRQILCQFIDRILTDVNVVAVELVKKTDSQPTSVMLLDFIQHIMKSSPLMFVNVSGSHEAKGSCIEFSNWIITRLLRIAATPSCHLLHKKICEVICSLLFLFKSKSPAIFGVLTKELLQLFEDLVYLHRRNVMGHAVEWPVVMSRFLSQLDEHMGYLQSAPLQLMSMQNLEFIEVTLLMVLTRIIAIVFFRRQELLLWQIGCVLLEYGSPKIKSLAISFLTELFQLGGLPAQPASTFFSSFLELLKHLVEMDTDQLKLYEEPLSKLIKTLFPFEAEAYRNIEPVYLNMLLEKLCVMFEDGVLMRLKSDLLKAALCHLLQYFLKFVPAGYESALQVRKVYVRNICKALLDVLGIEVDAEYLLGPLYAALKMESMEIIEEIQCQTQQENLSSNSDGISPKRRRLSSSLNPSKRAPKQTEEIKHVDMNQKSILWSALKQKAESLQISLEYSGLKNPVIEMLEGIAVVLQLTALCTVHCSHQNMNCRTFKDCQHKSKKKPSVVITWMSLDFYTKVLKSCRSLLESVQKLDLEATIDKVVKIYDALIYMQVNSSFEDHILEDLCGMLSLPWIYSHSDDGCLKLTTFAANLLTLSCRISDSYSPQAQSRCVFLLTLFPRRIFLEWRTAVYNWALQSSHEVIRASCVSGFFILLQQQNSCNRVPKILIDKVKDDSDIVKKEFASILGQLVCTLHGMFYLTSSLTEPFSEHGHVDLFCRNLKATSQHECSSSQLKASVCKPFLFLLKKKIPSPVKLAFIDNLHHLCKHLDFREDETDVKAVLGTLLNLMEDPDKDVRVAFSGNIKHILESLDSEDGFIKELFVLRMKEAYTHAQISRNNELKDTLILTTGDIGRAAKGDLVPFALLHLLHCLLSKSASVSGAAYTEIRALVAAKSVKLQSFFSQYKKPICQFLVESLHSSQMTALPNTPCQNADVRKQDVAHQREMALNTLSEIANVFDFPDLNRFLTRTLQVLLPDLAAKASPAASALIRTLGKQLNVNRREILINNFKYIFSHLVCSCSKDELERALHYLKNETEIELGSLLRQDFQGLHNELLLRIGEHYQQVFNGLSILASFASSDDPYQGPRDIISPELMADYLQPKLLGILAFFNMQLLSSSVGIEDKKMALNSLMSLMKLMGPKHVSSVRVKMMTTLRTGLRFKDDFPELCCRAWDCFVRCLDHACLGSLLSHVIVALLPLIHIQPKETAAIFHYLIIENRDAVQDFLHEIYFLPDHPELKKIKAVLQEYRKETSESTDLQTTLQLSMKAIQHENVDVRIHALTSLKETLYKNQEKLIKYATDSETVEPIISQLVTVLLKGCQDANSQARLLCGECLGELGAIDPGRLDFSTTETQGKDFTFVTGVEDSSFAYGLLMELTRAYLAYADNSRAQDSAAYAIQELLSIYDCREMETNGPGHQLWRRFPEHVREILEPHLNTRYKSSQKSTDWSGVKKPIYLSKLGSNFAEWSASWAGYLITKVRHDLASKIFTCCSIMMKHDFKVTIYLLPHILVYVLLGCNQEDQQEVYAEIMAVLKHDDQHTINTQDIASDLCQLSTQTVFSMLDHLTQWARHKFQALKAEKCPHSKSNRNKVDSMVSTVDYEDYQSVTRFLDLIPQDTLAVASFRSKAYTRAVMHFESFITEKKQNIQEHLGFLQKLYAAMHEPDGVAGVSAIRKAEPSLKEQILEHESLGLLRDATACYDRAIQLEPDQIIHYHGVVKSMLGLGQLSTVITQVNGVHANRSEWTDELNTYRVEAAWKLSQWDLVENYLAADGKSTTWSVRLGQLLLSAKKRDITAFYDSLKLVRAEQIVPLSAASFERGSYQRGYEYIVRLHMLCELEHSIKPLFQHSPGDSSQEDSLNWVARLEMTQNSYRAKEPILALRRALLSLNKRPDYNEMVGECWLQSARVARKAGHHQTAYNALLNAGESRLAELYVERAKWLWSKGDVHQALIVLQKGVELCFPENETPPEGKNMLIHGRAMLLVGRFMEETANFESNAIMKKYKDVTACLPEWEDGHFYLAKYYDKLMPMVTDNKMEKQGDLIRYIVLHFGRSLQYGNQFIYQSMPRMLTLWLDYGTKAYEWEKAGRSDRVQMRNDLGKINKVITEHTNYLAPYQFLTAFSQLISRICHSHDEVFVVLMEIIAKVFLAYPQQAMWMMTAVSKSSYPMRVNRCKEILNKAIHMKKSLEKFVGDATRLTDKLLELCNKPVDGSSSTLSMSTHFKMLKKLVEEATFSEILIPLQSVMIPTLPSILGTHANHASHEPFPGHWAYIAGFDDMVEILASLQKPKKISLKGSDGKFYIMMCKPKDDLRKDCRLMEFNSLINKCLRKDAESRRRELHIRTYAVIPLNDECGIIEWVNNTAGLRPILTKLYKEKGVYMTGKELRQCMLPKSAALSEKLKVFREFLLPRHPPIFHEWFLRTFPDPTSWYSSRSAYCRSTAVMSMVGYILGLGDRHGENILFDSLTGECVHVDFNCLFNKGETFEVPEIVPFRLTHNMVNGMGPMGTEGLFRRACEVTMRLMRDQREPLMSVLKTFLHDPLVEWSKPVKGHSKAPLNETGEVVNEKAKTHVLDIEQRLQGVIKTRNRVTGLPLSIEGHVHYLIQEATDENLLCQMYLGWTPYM

[2] = target: T1, von Hippel-Lindau disease tumor suppressor/Serine/threonine-protein kinase ATR (Homo sapiens); test: PROTAC activity at ATR/VHL in patient derived human MIA PaCa-2 cells assessed as protein degradation at 2 uM measured after 24 hrs by immunoblot analysis relative to untreated control; type: cell-based
[3] = Chemical stability of the compound in at pH 7.4 measured at 24 hrs by HPLC based non-enzymatic stability assay; type: physicochemical; settings: buffer, read-out: Stability
HEK293 = test: Cytotoxicity against human HEK293 cells assessed as cell viability at 50 uM incubated for 24 hrs by Alamar Blue reagent based assay relative to control; type: functional; settings: read-out: Activity
[4] = Chemical stability of the compound in at pH 7.4 measured at 72 hrs by HPLC based non-enzymatic stability assay; type: physicochemical; settings: buffer, read-out: Stability
[5] = Chemical stability of the compound in at pH 7.4 measured at 48 hrs by HPLC based non-enzymatic stability assay; type: physicochemical; settings: buffer, read-out: Stability
[6] = Chemical stability of the compound in at pH 7.4 measured at 6 hrs by HPLC based non-enzymatic stability assay; type: physicochemical; settings: buffer, read-out: Stability
[7] = Chemical stability of the compound in at pH 7.4 measured at 12 hrs by HPLC based non-enzymatic stability assay; type: physicochemical; settings: buffer, read-out: Stability
[8] = target: T2, Protein cereblon/Serine/threonine-protein kinase ATR (Homo sapiens) (UniProt Q13535+Q96SW2); test: PROTAC activity at ATR/CRBN in patient derived human MIA PaCa-2 cells assessed as reduction in protein level at 0.1 to 5 uM measured after 24 hrs by immunoblot analysis relative to untreated control; type: cell-based; settings: dose 0.1-5 µM
T2 sequence (Q13535 whole entry, looked up): as above
T2 sequence (Q96SW2 whole entry, looked up): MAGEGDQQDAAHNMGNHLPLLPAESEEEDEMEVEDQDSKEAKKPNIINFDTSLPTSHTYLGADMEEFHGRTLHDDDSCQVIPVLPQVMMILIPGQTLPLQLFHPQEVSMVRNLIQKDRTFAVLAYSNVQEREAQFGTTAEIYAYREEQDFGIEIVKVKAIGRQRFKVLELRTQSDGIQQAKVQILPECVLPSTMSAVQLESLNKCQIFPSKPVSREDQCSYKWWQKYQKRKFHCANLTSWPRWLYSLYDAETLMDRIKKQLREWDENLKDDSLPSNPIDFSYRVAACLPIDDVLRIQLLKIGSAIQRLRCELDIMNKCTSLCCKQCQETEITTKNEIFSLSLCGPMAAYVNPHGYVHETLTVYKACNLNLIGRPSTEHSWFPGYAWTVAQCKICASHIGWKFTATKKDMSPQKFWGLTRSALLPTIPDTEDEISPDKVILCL

[9] = Plasma stability in human plasma assessed as compound remaining at 20 uM measured after 24 hrs by HPLC analysis; type: ADME, cell-free; settings: read-out: Stability
[10] = Plasma protein binding in human plasma; type: ADME, cell-free; settings: read-out: PPB (converted)
ATR/ATRIP = ATR/ATRIP (Homo sapiens, UniProt Q13535); test: Inhibition of human ATR/ATRIP complex using GST-cMyc-p53 substrate measured after 30 mins by HTRF based non-radioactive in vitro assay; type: protein-complex assay
Sequence of ATR/ATRIP (Q13535 whole entry): as the sequence (Q13535 whole entry, looked up) above
Sequence of ATR/ATRIP (Q8WXE1 whole entry, further chain): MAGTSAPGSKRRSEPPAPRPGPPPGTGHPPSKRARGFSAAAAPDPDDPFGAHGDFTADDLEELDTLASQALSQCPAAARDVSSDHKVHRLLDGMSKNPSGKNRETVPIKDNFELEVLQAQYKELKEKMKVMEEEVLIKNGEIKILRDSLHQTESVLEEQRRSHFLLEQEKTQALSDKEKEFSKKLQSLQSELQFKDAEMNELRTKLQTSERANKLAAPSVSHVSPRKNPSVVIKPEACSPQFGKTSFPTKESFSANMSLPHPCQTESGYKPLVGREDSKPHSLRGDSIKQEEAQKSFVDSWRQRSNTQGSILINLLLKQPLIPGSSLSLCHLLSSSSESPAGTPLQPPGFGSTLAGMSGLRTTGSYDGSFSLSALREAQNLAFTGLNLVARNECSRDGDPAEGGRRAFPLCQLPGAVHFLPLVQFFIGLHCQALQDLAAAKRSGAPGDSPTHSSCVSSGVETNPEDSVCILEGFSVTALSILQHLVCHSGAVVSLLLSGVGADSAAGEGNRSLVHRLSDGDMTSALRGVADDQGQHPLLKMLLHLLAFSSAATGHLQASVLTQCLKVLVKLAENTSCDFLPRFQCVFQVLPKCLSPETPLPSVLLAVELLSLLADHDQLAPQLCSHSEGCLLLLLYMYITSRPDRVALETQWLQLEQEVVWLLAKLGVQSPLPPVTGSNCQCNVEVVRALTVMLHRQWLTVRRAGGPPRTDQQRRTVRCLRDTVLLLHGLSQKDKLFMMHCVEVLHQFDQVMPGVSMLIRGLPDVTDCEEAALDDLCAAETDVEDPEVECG

[11] = target: T2, Protein cereblon/Serine/threonine-protein kinase ATR (Homo sapiens); test: PROTAC activity at ATR/CRBN in patient derived human MIA PaCa-2 cells assessed as reduction in protein level at 2 uM measured after 24 hrs by immunoblot analysis relative to untreated control; type: cell-based; parameters: scale not given: the % may be the effect or the level left
[12] = target: T2, Protein cereblon/Serine/threonine-protein kinase ATR (Homo sapiens); test: PROTAC activity at ATR/CRBN in patient derived human MIA PaCa-2 cells assessed as reduction in protein level at 5 uM measured after 24 hrs by immunoblot analysis relative to untreated control; type: cell-based; parameters: scale not given: the % may be the effect or the level left
[13] = target: T2, Protein cereblon/Serine/threonine-protein kinase ATR (Homo sapiens); test: PROTAC activity at ATR/CRBN in patient derived human MIA PaCa-2 cells assessed as reduction in protein level at 1 uM measured after 24 hrs by immunoblot analysis relative to untreated control; type: cell-based

| SMILES | Activity [1] | Activity [2] | remaining at 24 h [3] | remaining at 72 h [4] | remaining at 48 h [5] | remaining at 6 h [6] | remaining at 12 h [7] | Activity [8] | remaining at 24 h, 20 µM [9] | fraction unbound [10] | IC50 (ATR/ATRIP) | Activity [11] | Activity [12] | Activity [13] | viability at 50 µM (HEK293) |
| --- | --- | --- | --- | --- | --- | --- | --- | --- | --- | --- | --- | --- | --- | --- | --- |
| Cc1ncsc1-c1ccc(CNC(=O)[C@@H]2C[C@@H](O)CN2C(=O)[C@@H](NC(=O)CCOCCOCCOCCNS(=O)(=O)c2ccc(-c3cnc(N)c(C(=O)Nc4ccccc4)n3)cc2)C(C)(C)C)cc1 | inactive | inactive | 102% | 105% | 103% | 100% | 100% | – | – | – | – | – | – | – | 45.7% |
| Cc1ncsc1-c1ccc(CNC(=O)[C@@H]2C[C@@H](O)CN2C(=O)[C@@H](NC(=O)CCCCCNS(=O)(=O)c2ccc(-c3cnc(N)c(C(=O)Nc4ccccc4)n3)cc2)C(C)(C)C)cc1 | inactive | inactive | 100% | 100% | 100% | 99% | 99% | – | – | – | – | – | – | – | 60.3% |
| CNS(=O)(=O)c1ccc(-c2cnc(N)c(C(=O)Nc3ccccc3)n2)cc1 | – | – | 100% | 104% | 102% | 99% | 100% | – | > 92% | 0.225 | 1 µM | – | – | – | 83.7% |
| CNCc1ccc(-c2nnc(-c3nc(-c4ccc(S(=O)(=O)NCCCCCC(=O)NCCCC#Cc5cccc6c5CN(C5CCC(=O)NC5=O)C6=O)cc4)cnc3N)o2)cc1 (stereo unspecified) | – | – | 103% | 102% | 103% | 104% | 103% | – | – | – | – | inactive | – | – | 101% |
| CNCc1ccc(-c2nnc(-c3nc(-c4ccc(S(=O)(=O)NCCCCCC(=O)NCC#Cc5cccc6c5CN(C5CCC(=O)NC5=O)C6=O)cc4)cnc3N)o2)cc1 (stereo unspecified) | – | – | 101% | 100% | 100% | 101% | 101% | – | – | – | – | > 20% | – | – | 102% |
| Nc1ncc(-c2ccc(S(=O)(=O)NCCCCC(=O)NCC#Cc3cccc4c3CN(C3CCC(=O)NC3=O)C4=O)cc2)nc1-c1nnc(-c2ccccc2)o1 (stereo unspecified) | – | – | 105% | 107% | 103% | 104% | 105% | – | – | – | – | inactive | – | – | 95.5% |
| CN1C(=O)CCC(N2Cc3c(C#CCCCNC(=O)CCCCCNS(=O)(=O)c4ccc(-c5cnc(N)c(C(=O)Nc6ccccc6)n5)cc4)cccc3C2=O)C1=O (stereo unspecified) | – | – | 99% | 97% | 98% | 100% | 100% | – | – | – | – | inactive | – | – | 83.5% |
| CNCc1ccc(-c2nnc(-c3nc(-c4ccc(S(=O)(=O)NCCCCC(=O)NCCCC#Cc5cccc6c5CN(C5CCC(=O)NC5=O)C6=O)cc4)cnc3N)o2)cc1 (stereo unspecified) | – | – | 102% | 100% | 100% | 101% | 101% | – | – | – | – | 40% | – | – | 107% |
| CNCc1ccc(-c2nnc(-c3nc(-c4ccc(S(=O)(=O)NCCCCCCC(=O)NCCCC#Cc5cccc6c5CN(C5CCC(=O)NC5=O)C6=O)cc4)cnc3N)o2)cc1 (stereo unspecified) | – | – | 101% | 93% | 95% | 101% | 101% | – | – | – | – | > 20% | – | – | 91.8% |
| Nc1ncc(-c2ccc(S(=O)(=O)NCCCCCC(=O)NCC#Cc3cccc4c3CN(C3CCC(=O)NC3=O)C4=O)cc2)nc1-c1nnc(-c2ccccc2)o1 (stereo unspecified) | – | – | 105% | 106% | 106% | 108% | 105% | – | – | – | – | 40% | – | – | 70.5% |
| Cc1ncsc1-c1ccc(CNC(=O)[C@@H]2C[C@@H](O)CN2C(=O)[C@@H](NC(=O)CCOCCOCCNS(=O)(=O)c2ccc(-c3cnc(N)c(C(=O)Nc4ccccc4)n3)cc2)C(C)(C)C)cc1 | inactive | inactive | 101% | 102% | 101% | 100% | 100% | – | – | – | – | – | – | – | 44.5% |

The next lines start with results.

| Activity [1] | Activity [2] | remaining at 24 h [3] | remaining at 72 h [4] | remaining at 48 h [5] | remaining at 6 h [6] | remaining at 12 h [7] | Activity [8] | remaining at 24 h, 20 µM [9] | fraction unbound [10] | IC50 (ATR/ATRIP) | Activity [11] | Activity [12] | Activity [13] | SMILES | viability at 50 µM (HEK293) |
| --- | --- | --- | --- | --- | --- | --- | --- | --- | --- | --- | --- | --- | --- | --- | --- |
| – | – | 100% | 100% | 100% | 100% | 99% | inactive | – | – | – | – | – | – | Nc1ncc(-c2ccc(S(=O)(=O)NCCCCCCCC(=O)NCCOc3ccc(C4CCC(=O)NC4=O)cc3)cc2)nc1C(=O)Nc1ccccc1 (stereo unspecified) | 62.9% |
| – | – | 97% | 65% | 82% | 102% | 104% | inactive | – | – | – | – | – | – | Nc1ncc(-c2ccc(S(=O)(=O)NCCCCCC(=O)N3CCN(c4cccc(C(=O)NC5CCC(=O)NC5=O)n4)CC3)cc2)nc1C(=O)Nc1ccccc1 (stereo unspecified) | 86.5% |
| – | – | 108% | 84% | 94% | 98% | 105% | – | – | – | – | inactive | – | – | Nc1ncc(-c2ccc(S(=O)(=O)NCCCCCCCC(=O)N3CCN(c4ccc5c(c4)C(=O)N(C4CCC(=O)NC4=O)C5=O)CC3)cc2)nc1C(=O)Nc1ccccc1 (stereo unspecified) | 90.5% |
| – | – | 101% | 99% | 99% | 101% | 101% | inactive | – | – | – | – | – | – | Nc1ncc(-c2ccc(S(=O)(=O)NCCCCC(=O)NCCOc3ccc(C4CCC(=O)NC4=O)cc3)cc2)nc1C(=O)Nc1ccccc1 (stereo unspecified) | 66.4% |
| – | – | 96% | 72% | 87% | 101% | 101% | – | – | – | – | – | 40% | – | Nc1ncc(-c2ccc(S(=O)(=O)NCCCCCC(=O)N3CCN(c4ccc5c(c4)C(=O)N(C4CCC(=O)NC4=O)C5=O)CC3)cc2)nc1C(=O)Nc1ccccc1 (stereo unspecified) | 96% |
| – | – | 80% | 6% | 21% | 100% | 95% | – | – | – | – | inactive | – | – | Nc1ncc(-c2ccc(S(=O)(=O)NCCOCCOCCC(=O)N3CCN(c4ccc5c(c4)C(=O)N(C4CCC(=O)NC4=O)C5=O)CC3)cc2)nc1C(=O)Nc1ccccc1 (stereo unspecified) | 79.9% |
| – | – | 92% | 71% | 81% | 98% | 95% | inactive | – | – | – | – | – | – | CNCc1ccc(-c2nnc(-c3nc(-c4ccc(S(=O)(=O)NCCCCCC(=O)N5CCN(c6ccc7c(c6)C(=O)N(C6CCC(=O)NC6=O)C7=O)CC5)cc4)cnc3N)o2)cc1 (stereo unspecified) | 105% |
| – | – | 90% | 74% | 82% | 97% | 94% | – | – | – | – | inactive | – | – | Nc1ncc(-c2ccc(S(=O)(=O)NCCCCC(=O)N3CCN(c4ccc5c(c4)C(=O)N(C4CCC(=O)NC4=O)C5=O)CC3)cc2)nc1C(=O)Nc1ccccc1 (stereo unspecified) | 102% |
| – | – | 102% | 101% | 102% | 101% | 103% | inactive | – | – | – | – | – | – | Nc1ncc(-c2ccc(S(=O)(=O)NCCCCCCC(=O)NCCOc3ccc(C4CCC(=O)NC4=O)cc3)cc2)nc1C(=O)Nc1ccccc1 (stereo unspecified) | 95.7% |
| – | – | 105% | 109% | 105% | 102% | 103% | – | – | – | – | – | – | Active | Nc1ncc(-c2ccc(S(=O)(=O)NCCCCCCC(=O)NCCCC#Cc3cccc4c3CN(C3CCC(=O)NC3=O)C4=O)cc2)nc1C(=O)Nc1ccccc1 (stereo unspecified) | 109% |
| – | – | 104% | 109% | 105% | 101% | 103% | – | – | – | – | Active | – | – | Nc1ncc(-c2ccc(S(=O)(=O)NCCCCCC(=O)NCC#Cc3cccc4c3CN(C3CCC(=O)NC3=O)C4=O)cc2)nc1C(=O)Nc1ccccc1 (stereo unspecified) | 86.4% |
| – | – | 90% | 73% | 80% | 96% | 92% | inactive | – | – | – | – | – | – | Nc1ncc(-c2ccc(S(=O)(=O)NCCCCCC(=O)N3CCN(c4ccc5c(c4)C(=O)N(C4CCC(=O)NC4=O)C5=O)CC3)cc2)nc1-c1nnc(-c2ccccc2)o1 (stereo unspecified) | 85.6% |
